# Measured values taken from article doi:10.1101/2021.09.30.462449v1 (biorxiv, 2021).
# Assays:
# Assay in all cases: biochemical
# Conditions in all cases: read-out: % inhibition mean (Z'Lyte)
# HIPK2 = HIPK2 (Homo sapiens, UniProt Q9H2X6)
# SYK = SYK (Homo sapiens, UniProt P43405)
# RAF1 (cRAF) Y340D Y341D = RAF1 (cRAF) Y340D Y341D (Homo sapiens, UniProt P04049, Y340D/Y341D)
# SGK2 = SGK2 (Homo sapiens, UniProt Q9HBY8)
# PLK2 = PLK2 (Homo sapiens, UniProt Q9NYY3)
# ABL1 = ABL1 (Homo sapiens, UniProt P00519)
# NTRK1 (TRKA) = NTRK1 (TRKA) (Homo sapiens, UniProt P04629)
# HIPK1 (Myak) = HIPK1 (Myak) (Homo sapiens, UniProt Q86Z02)
# NTRK3 (TRKC) = NTRK3 (TRKC) (Homo sapiens, UniProt Q16288)
# STK24 (MST3) = STK24 (MST3) (Homo sapiens, UniProt Q9Y6E0)
# NEK2 = NEK2 (Homo sapiens, UniProt P51955)
# EGFR (ErbB1) L858R = EGFR (ErbB1) L858R (Homo sapiens, UniProt P00533, L858R)
# PRKACA (PKA) = PRKACA (PKA) (Homo sapiens, UniProt P17612)
# PRKCE (PKC epsilon) = PRKCE (PKC epsilon) (Homo sapiens, UniProt Q02156)
# IKBKB (IKK beta) = IKBKB (IKK beta) (Homo sapiens, UniProt O14920)
# EPHB1 = EPHB1 (Homo sapiens, UniProt P54762)
# STK4 (MST1) = STK4 (MST1) (Homo sapiens, UniProt Q13043)
# FRAP1 (mTOR) = FRAP1 (mTOR) (Homo sapiens, UniProt P42345)
# CSNK1E (CK1 epsilon) = CSNK1E (CK1 epsilon) (Homo sapiens, UniProt P49674)
# ABL1 Y253F = ABL1 Y253F (Homo sapiens, UniProt P00519, Y253F)
# PIM2 = PIM2 (Homo sapiens, UniProt Q9P1W9)
# RPS6KA3 (RSK2) = RPS6KA3 (RSK2) (Homo sapiens, UniProt P51812)
# ROCK2 = ROCK2 (Homo sapiens, UniProt O75116)
# JAK2 JH1 JH2 V617F = JAK2 JH1 JH2 V617F (Homo sapiens, UniProt O60674, V617F)
# CAMK4 (CaMKIV) = CAMK4 (CaMKIV) (Homo sapiens, UniProt Q16566)
# CSNK1G2 (CK1 gamma 2) = CSNK1G2 (CK1 gamma 2) (Homo sapiens, UniProt P78368)
# PAK4 = PAK4 (Homo sapiens, UniProt O96013)
# RET V804E = RET V804E (Homo sapiens, UniProt P07949, V804E)
# Sequence of PLK2 (Q9NYY3 whole entry): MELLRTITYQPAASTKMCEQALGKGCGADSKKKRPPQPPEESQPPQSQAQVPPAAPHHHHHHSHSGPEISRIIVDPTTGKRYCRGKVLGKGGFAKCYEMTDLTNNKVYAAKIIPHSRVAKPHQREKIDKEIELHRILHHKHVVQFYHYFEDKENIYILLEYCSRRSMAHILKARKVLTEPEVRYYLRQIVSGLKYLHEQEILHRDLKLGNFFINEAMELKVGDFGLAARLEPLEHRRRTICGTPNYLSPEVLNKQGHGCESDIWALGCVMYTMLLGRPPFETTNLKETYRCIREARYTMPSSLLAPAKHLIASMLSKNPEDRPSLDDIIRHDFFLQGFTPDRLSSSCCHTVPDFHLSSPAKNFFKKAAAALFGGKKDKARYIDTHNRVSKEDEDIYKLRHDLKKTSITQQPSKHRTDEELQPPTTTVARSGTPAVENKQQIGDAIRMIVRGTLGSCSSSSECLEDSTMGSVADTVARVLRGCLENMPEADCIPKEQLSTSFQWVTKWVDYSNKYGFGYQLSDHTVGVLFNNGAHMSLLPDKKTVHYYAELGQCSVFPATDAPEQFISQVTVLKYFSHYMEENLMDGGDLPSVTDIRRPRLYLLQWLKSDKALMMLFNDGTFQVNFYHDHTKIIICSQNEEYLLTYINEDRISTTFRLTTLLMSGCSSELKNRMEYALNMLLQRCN
# Sequence of RAF1 (cRAF) Y340D Y341D (P04049 whole entry Y340D/Y341D): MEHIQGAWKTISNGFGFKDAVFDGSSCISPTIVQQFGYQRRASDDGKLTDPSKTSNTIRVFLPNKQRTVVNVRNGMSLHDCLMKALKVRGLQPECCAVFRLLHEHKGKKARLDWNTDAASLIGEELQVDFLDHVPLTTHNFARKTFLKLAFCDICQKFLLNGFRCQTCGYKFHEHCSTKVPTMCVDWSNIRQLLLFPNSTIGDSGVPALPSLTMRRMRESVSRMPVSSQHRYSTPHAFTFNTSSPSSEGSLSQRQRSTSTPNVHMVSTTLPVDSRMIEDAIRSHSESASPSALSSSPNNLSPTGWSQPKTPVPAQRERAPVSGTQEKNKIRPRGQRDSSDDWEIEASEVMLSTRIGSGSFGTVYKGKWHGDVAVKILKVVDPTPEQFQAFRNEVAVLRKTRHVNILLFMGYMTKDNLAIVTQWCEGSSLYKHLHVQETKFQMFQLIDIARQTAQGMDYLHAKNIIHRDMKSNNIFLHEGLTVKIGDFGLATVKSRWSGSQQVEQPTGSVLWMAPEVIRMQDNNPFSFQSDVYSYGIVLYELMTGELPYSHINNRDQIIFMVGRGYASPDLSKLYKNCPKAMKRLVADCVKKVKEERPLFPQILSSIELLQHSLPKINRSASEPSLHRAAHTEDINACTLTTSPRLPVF
# Sequence of ROCK2 (O75116 whole entry): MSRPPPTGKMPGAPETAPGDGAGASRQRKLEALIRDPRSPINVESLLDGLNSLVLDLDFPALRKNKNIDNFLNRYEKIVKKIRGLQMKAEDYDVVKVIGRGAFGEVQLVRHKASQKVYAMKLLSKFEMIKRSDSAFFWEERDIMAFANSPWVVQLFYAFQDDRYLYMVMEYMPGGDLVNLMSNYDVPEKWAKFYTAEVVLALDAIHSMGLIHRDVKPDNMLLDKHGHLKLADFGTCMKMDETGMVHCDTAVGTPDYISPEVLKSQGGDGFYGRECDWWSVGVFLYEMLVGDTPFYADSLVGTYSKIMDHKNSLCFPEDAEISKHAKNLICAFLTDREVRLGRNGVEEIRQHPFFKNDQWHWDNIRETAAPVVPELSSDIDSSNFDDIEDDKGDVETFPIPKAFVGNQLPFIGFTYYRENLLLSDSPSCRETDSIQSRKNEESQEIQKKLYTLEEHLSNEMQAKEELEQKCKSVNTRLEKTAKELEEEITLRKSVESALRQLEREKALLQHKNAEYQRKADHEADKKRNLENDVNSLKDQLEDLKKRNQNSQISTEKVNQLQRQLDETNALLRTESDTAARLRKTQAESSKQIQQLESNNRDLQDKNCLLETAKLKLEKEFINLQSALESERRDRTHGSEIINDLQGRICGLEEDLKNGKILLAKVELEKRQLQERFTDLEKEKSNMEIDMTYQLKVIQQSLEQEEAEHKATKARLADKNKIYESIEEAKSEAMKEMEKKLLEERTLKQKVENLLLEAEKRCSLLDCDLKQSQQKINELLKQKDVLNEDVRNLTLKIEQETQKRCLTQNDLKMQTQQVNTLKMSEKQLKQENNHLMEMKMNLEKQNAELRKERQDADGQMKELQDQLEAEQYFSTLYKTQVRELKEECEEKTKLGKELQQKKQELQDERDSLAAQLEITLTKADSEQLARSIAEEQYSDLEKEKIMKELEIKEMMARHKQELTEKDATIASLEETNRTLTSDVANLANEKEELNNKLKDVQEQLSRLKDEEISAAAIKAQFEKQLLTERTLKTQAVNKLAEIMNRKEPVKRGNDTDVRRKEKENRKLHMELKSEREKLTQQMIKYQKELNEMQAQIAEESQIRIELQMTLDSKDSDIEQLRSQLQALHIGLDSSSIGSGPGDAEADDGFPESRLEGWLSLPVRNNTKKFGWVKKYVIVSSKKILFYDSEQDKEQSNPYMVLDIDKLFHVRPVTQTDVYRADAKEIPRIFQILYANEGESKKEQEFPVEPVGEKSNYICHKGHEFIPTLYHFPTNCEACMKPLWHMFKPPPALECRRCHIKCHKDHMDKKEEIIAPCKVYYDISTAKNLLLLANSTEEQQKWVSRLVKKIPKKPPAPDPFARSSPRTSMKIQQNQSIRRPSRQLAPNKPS
# Sequence of EGFR (ErbB1) L858R (P00533 whole entry L858R): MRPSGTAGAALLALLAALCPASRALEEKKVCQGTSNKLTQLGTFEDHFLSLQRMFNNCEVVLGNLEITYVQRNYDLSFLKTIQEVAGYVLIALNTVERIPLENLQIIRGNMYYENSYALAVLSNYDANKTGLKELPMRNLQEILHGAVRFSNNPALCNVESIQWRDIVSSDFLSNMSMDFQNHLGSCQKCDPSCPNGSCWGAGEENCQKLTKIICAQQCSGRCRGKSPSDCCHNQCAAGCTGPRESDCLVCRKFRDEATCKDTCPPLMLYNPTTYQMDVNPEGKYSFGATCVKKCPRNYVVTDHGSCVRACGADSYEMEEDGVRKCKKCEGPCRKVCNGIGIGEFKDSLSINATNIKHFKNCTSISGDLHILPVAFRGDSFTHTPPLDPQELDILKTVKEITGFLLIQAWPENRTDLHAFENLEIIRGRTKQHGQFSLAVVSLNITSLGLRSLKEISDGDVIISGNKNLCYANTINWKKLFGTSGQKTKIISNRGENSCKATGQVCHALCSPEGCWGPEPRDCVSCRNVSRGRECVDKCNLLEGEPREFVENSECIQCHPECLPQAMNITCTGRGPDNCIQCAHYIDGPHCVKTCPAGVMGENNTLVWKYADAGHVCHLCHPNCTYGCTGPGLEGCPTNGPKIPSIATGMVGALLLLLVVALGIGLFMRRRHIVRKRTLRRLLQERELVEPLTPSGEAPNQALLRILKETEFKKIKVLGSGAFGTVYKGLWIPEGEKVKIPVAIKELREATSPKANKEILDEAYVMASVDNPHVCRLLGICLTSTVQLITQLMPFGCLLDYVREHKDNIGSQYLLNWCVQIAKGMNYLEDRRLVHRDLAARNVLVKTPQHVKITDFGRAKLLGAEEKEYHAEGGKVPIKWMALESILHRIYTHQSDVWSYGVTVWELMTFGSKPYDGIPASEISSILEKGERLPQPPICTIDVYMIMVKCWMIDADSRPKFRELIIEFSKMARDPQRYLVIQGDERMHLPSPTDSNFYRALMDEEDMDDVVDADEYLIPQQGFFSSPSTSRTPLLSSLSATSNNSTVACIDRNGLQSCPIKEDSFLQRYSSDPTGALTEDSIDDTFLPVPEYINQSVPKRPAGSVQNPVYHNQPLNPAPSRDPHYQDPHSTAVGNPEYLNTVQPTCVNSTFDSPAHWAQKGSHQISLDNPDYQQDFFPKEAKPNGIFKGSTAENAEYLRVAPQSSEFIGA
# Sequence of CAMK4 (CaMKIV) (Q16566 whole entry): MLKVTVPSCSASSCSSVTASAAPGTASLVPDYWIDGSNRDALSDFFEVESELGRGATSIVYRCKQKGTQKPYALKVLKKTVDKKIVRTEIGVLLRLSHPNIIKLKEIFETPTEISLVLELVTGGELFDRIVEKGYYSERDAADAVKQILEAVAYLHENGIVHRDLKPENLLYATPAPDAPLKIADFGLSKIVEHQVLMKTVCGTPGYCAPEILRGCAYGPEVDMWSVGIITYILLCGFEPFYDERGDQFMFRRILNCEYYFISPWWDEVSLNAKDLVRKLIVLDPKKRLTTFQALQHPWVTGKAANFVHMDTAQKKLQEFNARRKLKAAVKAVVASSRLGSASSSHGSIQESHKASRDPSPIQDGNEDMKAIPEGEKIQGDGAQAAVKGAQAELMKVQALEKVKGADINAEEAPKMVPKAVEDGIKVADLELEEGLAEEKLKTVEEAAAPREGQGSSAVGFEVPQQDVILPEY
# Sequence of SGK2 (Q9HBY8 whole entry): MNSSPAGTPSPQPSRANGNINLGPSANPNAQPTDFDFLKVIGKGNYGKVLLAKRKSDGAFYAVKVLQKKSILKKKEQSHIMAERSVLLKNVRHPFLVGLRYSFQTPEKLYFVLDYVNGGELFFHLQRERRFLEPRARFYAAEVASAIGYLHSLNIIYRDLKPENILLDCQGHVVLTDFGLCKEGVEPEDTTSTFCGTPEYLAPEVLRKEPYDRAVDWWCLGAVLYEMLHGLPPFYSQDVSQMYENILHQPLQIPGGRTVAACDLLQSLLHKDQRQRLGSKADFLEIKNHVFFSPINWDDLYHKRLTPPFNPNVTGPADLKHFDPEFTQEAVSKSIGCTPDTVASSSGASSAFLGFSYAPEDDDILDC
structure (smiles),measurement,setting,value
"COc1ccc2nc3cc(Cl)ccc3c(Nc3cc(CN4CCCC4)c(O)c(CN4CCCC4)c3)c2n1 [Pyronaridine, 4-[(7-Chloro-2-methoxybenzo[b][1,5]naphthyridin-10-yl)amino]-2,6-bis(1-pyrrolidinylmethyl)phenol phosphate (1:4)]",inhibition at 1 µM,HIPK2,-1%
same,inhibition at 1 µM,SYK,1%
same,inhibition at 1 µM,RAF1 (cRAF) Y340D Y341D,-9%
same,inhibition at 1 µM,SGK2,3%
same,inhibition at 1 µM,PLK2,5%
same,inhibition at 1 µM,ABL1,2%
same,inhibition at 1 µM,NTRK1 (TRKA),19%
same,inhibition at 1 µM,HIPK1 (Myak),1%
same,inhibition at 1 µM,NTRK3 (TRKC),2%
same,inhibition at 1 µM,STK24 (MST3),4%
same,inhibition at 1 µM,NEK2,-4%
same,inhibition at 1 µM,EGFR (ErbB1) L858R,5%
same,inhibition at 1 µM,PRKACA (PKA),1%
same,inhibition at 1 µM,PRKCE (PKC epsilon),6%
same,inhibition at 1 µM,IKBKB (IKK beta),1%
same,inhibition at 1 µM,EPHB1,2%
same,inhibition at 1 µM,STK4 (MST1),-5%
same,inhibition at 1 µM,FRAP1 (mTOR),1%
same,inhibition at 1 µM,CSNK1E (CK1 epsilon),1%
same,inhibition at 1 µM,ABL1 Y253F,-1%
same,inhibition at 1 µM,PIM2,-4%
same,inhibition at 1 µM,RPS6KA3 (RSK2),10%
same,inhibition at 1 µM,ROCK2,1%
same,inhibition at 1 µM,JAK2 JH1 JH2 V617F,0%
same,inhibition at 1 µM,CAMK4 (CaMKIV),-5%
same,inhibition at 1 µM,CSNK1G2 (CK1 gamma 2),4%
same,inhibition at 1 µM,PAK4,3%
same,inhibition at 1 µM,RET V804E,2%
